From patent publication US12134769B2, “MicroRNA-198 as a tumor suppressor in ovarian cancer” (Baylor College of Medicine, priority 2011, dated 2024)

Assays:
MIA-MSLN cells [1] = test: Orthotopic pancreatic cancer mouse model; assay type: in vivo, nude mice
Protocol: All animal procedures were conducted under the guidelines approved by the Institutional Animal Care and Use Committee (IACUC). Cells (3×10^6) were inoculated into the right flank (s.c. model) or into the pancreas (orthotopic model) of 5 to 6-week-old male nude mice (NCI-Charles River) as previously described (Li et al., 2007). Tumor size was measured using a digital caliper and tumor volume was determined with the following formula: tumor volume (mm^3)=[length (mm)]×[width (mm)]2×0.52. For the orthotopic model, after 4 weeks all surviving mice were euthanized and evaluated macroscopically for the presence of orthotopic tumor and metastases in the abdominal cavity. Tumor spread was further visualized using a fluorescent filter to view GFP expression. The tumor nodules were explanted, counted, and weighed. Tumor tissues were stored in RNAse Later solution (Ambion) in −80° for subsequent RNA/miRNA isolation and analysis.

AsPC1 cells = test: Monolayer wound healing assay; assay type: cell-based, human; conditions: miR-198 overexpressed, all serum conditions tested
Source text: (§1) For wound healing assay, wounds were created in confluent monolayer of cells with a sterile pipette tip in either 0%, 0.2%, 2%, or 5% FBS media, and wound healing was observed within the scrape line at different time points; representative fields for each cell line were photographed (Li et al., 2008, Bharadwaj).

MIA-MSLN cells [2] = test: Monolayer wound healing assay; assay type: cell-based, human; conditions: miR-198 overexpressed, all serum conditions tested
Source text: as §1

For “miR-198: microRNA-198, SEQ ID NO: 1 gguccagaggggagauagg; used as transfected precursors (Ambion) or Lenti-miR stable overexpression (GGUCCAGAGGGGAGAUAGG; listed as RNA, chemistry not given here; listed as Homo sapiens)”, the “average primary tumor weight” value (MIA-MSLN cells [1]; orthotopic MIA-MSLN-miR-198 cells, after 4 weeks) was 0.06 g, the metastases (MIA-MSLN cells [1]; orthotopic MIA-MSLN-miR-198 injected mice, 8 mice) was “Four of the eight mice had no metastases” and the “jaundice, weight loss, and abdominal ascitic fluid” value (MIA-MSLN cells [1]; orthotopic, mice injected with high miR-198 cells) was “none of the mice injected with high miR-198 cells had these symptoms”. The wound closure rate (AsPC1 cells) was “reduced wound closure rate” and the wound closure rate (MIA-MSLN cells [2]) was “reduced wound closure rate”.
